# According to article PMC8550792, “Evolution of kinase polypharmacology across HSP90 drug discovery” (Cell Chemical Biology, 2021):
# What was measured:
# Experiment in all cases: biochemical
# Assay type in all cases: biochemical
# 382 unique human kinases [1] = biological target: T1, 382 unique human kinases (Homo sapiens, UniProt P42681); settings: TXK, [ATP] 30 µM, compound 10 uM; for remaining activity at 10 µM: read-out: % Enzyme Activity (relative to DMSO controls)
# T1 construct: purchased Reaction Biology (HotSpot contract assay)
# T1 sequence (P42681 1-527): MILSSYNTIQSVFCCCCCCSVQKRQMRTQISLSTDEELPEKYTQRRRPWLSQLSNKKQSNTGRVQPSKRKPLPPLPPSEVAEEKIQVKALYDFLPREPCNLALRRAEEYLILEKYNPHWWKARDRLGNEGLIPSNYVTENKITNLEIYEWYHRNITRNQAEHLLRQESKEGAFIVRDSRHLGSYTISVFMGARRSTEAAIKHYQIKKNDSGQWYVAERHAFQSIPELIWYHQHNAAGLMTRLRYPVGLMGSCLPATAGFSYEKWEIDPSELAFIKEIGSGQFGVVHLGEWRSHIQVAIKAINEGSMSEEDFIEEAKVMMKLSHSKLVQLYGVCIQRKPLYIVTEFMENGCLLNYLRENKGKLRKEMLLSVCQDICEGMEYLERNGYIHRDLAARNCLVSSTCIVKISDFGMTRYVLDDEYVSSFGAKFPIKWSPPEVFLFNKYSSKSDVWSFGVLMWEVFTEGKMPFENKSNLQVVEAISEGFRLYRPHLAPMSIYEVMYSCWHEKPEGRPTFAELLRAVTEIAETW
# 382 unique human kinases [2] = biological target: T2, 382 unique human kinases (Homo sapiens, UniProt Q13976); settings: PKG1a, 10 uM; for remaining activity at 10 µM: read-out: % Enzyme Activity (relative to DMSO controls)
# T2 construct: purchased Reaction Biology (HotSpot contract assay)
# T2 sequence (Q13976 1-671): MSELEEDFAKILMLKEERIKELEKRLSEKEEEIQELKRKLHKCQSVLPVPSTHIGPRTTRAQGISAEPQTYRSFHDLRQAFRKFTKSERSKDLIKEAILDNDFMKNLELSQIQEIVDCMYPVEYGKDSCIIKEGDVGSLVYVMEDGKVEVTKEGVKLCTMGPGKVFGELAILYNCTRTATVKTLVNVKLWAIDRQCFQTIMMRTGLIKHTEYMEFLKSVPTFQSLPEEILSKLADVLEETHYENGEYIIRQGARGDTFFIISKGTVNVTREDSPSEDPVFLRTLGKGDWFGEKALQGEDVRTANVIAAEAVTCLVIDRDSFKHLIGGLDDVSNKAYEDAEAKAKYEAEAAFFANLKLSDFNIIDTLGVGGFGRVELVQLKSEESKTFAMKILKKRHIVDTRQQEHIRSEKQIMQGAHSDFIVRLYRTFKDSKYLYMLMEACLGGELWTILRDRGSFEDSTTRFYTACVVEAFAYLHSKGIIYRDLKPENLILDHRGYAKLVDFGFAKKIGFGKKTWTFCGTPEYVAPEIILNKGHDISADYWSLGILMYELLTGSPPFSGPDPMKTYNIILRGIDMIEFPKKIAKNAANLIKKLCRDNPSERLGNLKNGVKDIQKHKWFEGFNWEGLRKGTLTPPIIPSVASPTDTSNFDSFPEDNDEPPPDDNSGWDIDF
# 382 unique human kinases [3] = biological target: T3, 382 unique human kinases (Homo sapiens, UniProt Q5S007); settings: LRRK2, [ATP] 30 µM, compound 10 uM; for remaining activity at 10 µM: read-out: % Enzyme Activity (relative to DMSO controls)
# T3 construct: purchased Reaction Biology (HotSpot contract assay)
# T3 sequence (Q5S007 whole entry): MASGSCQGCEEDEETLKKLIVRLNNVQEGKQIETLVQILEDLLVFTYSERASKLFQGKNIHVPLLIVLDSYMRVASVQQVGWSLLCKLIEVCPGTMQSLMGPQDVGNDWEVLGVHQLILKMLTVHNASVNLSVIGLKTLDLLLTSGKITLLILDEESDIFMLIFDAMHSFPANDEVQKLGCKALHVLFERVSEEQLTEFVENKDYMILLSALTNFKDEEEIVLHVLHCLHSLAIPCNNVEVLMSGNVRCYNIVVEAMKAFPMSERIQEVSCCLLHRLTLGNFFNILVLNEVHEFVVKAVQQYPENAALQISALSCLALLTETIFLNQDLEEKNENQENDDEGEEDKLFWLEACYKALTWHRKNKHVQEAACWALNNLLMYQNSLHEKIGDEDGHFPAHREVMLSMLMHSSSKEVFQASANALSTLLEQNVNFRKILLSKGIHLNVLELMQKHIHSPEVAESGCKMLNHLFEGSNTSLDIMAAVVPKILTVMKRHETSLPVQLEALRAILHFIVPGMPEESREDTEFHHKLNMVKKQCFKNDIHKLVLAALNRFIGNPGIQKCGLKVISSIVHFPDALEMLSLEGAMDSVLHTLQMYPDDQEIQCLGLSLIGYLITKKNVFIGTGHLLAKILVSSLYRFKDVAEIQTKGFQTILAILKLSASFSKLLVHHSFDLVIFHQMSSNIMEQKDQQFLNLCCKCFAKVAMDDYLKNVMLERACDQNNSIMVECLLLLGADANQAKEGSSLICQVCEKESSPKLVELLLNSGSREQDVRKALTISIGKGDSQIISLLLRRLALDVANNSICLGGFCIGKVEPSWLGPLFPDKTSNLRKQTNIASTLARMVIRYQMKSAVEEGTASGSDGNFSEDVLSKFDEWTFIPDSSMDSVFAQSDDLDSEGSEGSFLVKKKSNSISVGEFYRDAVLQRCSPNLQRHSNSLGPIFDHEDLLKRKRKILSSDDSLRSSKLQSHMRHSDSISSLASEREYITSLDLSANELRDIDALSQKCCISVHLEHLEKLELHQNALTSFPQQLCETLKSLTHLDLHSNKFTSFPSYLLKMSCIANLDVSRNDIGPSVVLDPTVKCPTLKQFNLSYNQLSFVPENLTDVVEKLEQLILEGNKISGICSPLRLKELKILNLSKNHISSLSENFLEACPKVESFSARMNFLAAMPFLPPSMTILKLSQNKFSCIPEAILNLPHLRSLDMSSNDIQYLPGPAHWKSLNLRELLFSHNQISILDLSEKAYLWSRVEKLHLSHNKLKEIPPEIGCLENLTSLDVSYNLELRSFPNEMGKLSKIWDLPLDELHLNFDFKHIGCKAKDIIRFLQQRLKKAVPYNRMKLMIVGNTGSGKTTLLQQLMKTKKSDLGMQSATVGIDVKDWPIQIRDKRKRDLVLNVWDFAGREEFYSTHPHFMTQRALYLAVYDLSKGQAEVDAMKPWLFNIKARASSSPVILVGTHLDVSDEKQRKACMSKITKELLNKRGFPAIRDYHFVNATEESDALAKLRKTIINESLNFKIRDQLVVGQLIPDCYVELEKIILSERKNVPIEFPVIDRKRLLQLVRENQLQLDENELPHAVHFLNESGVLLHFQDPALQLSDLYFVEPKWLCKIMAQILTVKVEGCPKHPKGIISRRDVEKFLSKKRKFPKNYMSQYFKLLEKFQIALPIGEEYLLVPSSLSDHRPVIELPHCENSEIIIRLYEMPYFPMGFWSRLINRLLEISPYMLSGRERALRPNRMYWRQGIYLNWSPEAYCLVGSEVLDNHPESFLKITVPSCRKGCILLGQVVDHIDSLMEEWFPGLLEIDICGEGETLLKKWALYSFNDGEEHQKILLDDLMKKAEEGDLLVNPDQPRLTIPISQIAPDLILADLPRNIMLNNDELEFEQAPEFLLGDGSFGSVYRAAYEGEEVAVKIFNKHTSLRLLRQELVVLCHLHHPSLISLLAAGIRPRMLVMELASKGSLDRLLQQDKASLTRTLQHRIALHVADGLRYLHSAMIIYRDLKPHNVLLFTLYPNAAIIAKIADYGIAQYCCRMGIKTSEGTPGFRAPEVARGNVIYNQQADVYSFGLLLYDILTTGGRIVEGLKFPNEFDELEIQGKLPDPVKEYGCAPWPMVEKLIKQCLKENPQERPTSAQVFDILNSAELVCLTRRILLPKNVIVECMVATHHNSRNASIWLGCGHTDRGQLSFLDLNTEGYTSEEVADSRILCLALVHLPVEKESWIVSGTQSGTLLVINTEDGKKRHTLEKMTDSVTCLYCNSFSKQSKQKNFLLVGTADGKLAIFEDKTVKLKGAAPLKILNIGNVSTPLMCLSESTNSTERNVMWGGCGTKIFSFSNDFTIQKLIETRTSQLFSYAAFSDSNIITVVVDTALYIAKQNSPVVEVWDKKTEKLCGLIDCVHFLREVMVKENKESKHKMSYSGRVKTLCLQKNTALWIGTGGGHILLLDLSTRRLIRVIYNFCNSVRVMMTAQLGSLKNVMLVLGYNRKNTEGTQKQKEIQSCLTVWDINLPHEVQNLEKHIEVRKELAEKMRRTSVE
# 382 unique human kinases [4] = biological target: T4, 382 unique human kinases (Homo sapiens, UniProt P07949, V804L); settings: RET (V804L), 10 uM; for remaining activity at 10 µM: read-out: % Enzyme Activity (relative to DMSO controls)
# T4 construct: purchased Reaction Biology (HotSpot contract assay)
# T4 sequence (P07949 29-1114 V804L): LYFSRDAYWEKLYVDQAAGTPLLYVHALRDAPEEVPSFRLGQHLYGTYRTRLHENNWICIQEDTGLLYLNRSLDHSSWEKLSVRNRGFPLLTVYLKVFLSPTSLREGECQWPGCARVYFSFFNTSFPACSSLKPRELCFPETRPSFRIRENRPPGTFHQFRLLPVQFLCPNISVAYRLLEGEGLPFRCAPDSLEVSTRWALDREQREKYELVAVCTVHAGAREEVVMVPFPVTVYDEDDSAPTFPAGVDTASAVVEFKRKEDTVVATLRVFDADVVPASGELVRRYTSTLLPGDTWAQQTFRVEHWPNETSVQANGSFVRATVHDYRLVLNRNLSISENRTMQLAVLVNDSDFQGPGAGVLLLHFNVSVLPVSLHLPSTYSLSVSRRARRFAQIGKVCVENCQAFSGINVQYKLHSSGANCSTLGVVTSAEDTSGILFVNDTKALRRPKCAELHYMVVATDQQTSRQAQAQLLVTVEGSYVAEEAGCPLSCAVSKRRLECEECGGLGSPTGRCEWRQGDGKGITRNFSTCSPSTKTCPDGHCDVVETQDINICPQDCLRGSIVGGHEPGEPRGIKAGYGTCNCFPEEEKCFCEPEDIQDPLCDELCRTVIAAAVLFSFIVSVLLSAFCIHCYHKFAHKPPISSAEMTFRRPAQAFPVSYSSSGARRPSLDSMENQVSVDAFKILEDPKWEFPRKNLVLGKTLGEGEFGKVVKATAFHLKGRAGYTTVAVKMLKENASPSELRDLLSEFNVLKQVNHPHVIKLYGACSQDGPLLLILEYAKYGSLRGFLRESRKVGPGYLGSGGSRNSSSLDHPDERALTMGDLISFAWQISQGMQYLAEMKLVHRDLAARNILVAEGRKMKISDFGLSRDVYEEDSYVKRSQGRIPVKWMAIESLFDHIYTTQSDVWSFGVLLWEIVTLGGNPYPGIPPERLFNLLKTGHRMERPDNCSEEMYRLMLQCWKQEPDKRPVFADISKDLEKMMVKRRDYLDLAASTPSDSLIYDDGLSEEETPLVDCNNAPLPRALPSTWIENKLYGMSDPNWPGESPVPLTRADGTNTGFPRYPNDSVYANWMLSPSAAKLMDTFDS
# 382 unique human kinases [5] = biological target: T5, 382 unique human kinases (Homo sapiens, UniProt P22607); settings: FGFR3, 10 uM; for remaining activity at 10 µM: read-out: % Enzyme Activity (relative to DMSO controls)
# T5 construct: purchased Reaction Biology (HotSpot contract assay)
# T5 sequence (P22607 23-806): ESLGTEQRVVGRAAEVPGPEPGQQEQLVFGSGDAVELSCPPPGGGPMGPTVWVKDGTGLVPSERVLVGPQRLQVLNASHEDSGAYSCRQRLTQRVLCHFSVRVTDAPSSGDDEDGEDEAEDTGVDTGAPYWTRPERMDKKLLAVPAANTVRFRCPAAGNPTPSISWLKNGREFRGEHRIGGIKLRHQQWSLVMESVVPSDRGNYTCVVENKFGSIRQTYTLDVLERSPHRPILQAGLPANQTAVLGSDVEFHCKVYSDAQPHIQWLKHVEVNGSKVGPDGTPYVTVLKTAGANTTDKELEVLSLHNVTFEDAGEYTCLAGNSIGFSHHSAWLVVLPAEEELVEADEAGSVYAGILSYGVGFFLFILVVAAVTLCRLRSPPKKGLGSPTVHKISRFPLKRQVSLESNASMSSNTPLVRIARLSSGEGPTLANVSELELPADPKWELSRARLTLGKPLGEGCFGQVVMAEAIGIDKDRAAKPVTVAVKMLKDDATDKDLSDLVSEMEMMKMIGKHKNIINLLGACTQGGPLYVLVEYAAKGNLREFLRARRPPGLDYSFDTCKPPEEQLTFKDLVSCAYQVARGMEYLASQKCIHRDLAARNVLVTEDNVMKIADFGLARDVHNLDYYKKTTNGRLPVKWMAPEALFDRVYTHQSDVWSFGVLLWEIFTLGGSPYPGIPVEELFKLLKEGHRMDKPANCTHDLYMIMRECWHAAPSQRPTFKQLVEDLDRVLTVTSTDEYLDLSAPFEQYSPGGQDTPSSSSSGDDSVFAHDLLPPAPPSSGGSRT
# 382 unique human kinases [6] = biological target: T6, 382 unique human kinases (Homo sapiens, UniProt P41240); settings: CSK, 10 uM; for remaining activity at 10 µM: read-out: % Enzyme Activity (relative to DMSO controls)
# T6 construct: purchased Reaction Biology (HotSpot contract assay)
# T6 sequence (P41240 whole entry): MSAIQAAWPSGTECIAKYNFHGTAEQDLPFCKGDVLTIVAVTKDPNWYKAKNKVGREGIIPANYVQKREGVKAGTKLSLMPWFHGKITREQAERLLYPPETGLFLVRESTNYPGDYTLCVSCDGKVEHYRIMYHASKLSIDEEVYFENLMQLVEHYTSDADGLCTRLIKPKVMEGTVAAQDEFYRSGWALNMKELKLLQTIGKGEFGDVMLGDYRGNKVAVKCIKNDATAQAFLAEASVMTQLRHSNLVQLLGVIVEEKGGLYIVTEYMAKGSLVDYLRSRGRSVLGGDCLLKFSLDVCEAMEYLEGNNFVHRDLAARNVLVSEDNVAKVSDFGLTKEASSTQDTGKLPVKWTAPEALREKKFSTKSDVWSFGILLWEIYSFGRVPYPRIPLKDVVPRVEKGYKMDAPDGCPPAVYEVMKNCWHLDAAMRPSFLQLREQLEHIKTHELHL
# 382 unique human kinases [7] = biological target: T7, 382 unique human kinases (Homo sapiens, UniProt Q6P3R8); settings: NEK5, 10 uM; for remaining activity at 10 µM: read-out: % Enzyme Activity (relative to DMSO controls)
# T7 construct: purchased Reaction Biology (HotSpot contract assay)
# T7 sequence (Q6P3R8 1-708): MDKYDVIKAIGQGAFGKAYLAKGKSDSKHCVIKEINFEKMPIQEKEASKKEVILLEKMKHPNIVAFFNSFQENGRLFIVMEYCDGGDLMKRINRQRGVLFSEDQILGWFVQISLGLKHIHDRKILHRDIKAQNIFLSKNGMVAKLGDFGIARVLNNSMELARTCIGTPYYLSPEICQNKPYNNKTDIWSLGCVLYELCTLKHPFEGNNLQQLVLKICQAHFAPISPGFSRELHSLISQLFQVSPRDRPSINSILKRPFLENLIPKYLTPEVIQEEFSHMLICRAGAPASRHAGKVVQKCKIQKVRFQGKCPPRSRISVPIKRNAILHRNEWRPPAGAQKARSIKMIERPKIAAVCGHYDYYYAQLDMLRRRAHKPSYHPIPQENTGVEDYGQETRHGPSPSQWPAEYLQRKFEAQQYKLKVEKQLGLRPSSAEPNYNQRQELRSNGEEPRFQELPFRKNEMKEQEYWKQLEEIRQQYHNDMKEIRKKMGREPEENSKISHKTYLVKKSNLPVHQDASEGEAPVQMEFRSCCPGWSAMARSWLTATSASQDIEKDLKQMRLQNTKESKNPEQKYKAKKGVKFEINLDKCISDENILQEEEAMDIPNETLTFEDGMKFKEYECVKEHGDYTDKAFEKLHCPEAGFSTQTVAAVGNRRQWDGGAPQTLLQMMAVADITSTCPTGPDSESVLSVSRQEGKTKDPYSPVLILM
# 382 unique human kinases [8] = biological target: T8, 382 unique human kinases (Homo sapiens, UniProt Q8TD08); settings: kinase ERK7/MAPK15, compound 10 uM; for remaining activity at 10 µM: read-out: % Enzyme Activity (relative to DMSO controls)
# T8 construct: purchased Reaction Biology (HotSpot contract assay)
# T8 sequence (Q8TD08 1-544): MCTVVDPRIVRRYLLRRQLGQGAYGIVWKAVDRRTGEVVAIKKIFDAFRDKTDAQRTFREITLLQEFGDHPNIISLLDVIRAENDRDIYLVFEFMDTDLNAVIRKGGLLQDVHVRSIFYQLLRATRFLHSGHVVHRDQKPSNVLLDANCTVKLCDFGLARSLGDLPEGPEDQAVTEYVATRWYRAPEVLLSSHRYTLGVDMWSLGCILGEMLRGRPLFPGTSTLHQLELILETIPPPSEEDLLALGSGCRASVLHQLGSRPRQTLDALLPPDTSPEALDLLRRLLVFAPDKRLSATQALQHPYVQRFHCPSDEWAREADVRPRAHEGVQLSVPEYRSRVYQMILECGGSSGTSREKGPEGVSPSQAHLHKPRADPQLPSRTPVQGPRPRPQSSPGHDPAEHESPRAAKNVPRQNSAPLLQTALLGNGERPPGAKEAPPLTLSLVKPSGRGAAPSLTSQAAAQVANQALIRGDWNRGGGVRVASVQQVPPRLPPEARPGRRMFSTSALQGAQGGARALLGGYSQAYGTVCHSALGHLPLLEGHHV
Structure (SMILES),% Enzyme Activity (relative to DMSO controls) (382 unique human kinases [1]) [%],remaining activity at 10 µM (382 unique human kinases [1]) [%],% Enzyme Activity (relative to DMSO controls) (382 unique human kinases [2]) [%],remaining activity at 10 µM (382 unique human kinases [2]) [%],% Enzyme Activity (relative to DMSO controls) (382 unique human kinases [3]) [%],remaining activity at 10 µM (382 unique human kinases [3]) [%],remaining activity at 10 µM (382 unique human kinases [4]) [%],remaining activity at 10 µM (382 unique human kinases [5]) [%],remaining activity at 10 µM (382 unique human kinases [6]) [%],remaining activity at 10 µM (382 unique human kinases [7]) [%],remaining activity at 10 µM (382 unique human kinases [8]) [%],% Enzyme Activity (relative to DMSO controls) (382 unique human kinases [4]) [%],% Enzyme Activity (relative to DMSO controls) (382 unique human kinases [5]) [%],% Enzyme Activity (relative to DMSO controls) (382 unique human kinases [6]) [%],% Enzyme Activity (relative to DMSO controls) (382 unique human kinases [7]) [%],% Enzyme Activity (relative to DMSO controls) (382 unique human kinases [8]) [%]
CCNC(=O)c1noc(-c2cc(C(C)C)c(O)cc2O)c1-c1ccc(CN2CCOCC2)cc1 [Luminespib],87.82,88.1,92.81,95.7,94.05,94.8,,,,,,,,,,
CC(C)c1cc(-c2n[nH]c(=O)n2-c2ccc3c(ccn3C)c2)c(O)cc1O [Ganetespib (STA9090)],,,,,,,78.5,62.6,70.3,105,84.8,,,,,
CCNC(=O)c1noc(-c2cc(C(C)C)c(O)cc2O)c1-c1ccc(CN2CCOCC2)cc1 [Luminespib (AUY-922)],,,,,,,106,97.2,74.1,70.4,102,104.44,96.41,73.41,66.42,97.45
CC(C)c1cc(-c2n[nH]c(=O)n2-c2ccc3c(ccn3C)c2)c(O)cc1O [Ganetespib],,21.4,,90.9,,45.9,,,,,,,,,,
